The results in this text go back to article PMC4224607 (Chemical communications (Cambridge, England), 2014).

The nature of this assay: COPAS bead-based screening, background binding of the dye to library beads. The following applies: TR-labeled lysine and TR-labeled hCAII.

For `O=S(=O)([O-])c1cc(S(=O)(=O)Cl)ccc1C1=c2cc3c4c(c2Oc2c1cc1c5c2CCCN5CCC1)CCC[N+]=4CCC3` [TR], the “composition of positive peptides: positively charged amino acids” value is given as “reduced abundance of positively charged amino acids”.
